Results: article PMC9783881, “Synthesis and Preclinical Evaluation of Small-Molecule Prostate-Specific Membrane Antigen-Targeted Abiraterone Conjugate” (Molecules, 2022)
“Also recorded” adds a separate entry of the source.

Key:
[1] = Water solubility (comparison in words); format: physicochemical; conditions: compared to AbiAc
22Rv1 = experiment: Single cell ROS measurement with Pt-nanoelectrodes, 22Rv1; format: cell-based, human; conditions: 22Rv1, 1 h incubation, IC50 concentration
Procedure: Commercially available, disk-shaped carbon nanoelectrodes isolated in quartz (ICAPPIC Limited, London, UK) with diameters of 60–100 nm were used to prepare Pt nanoelectrodes for the amperometric detection of intracellular ROS level. Preparation of Pt-nanoelectrodes has been described in detail previously.
Briefly, a disk-shaped carbon nanoelectrode was etched in a 0.1 M NaOH, 10 mM KCl solution for 20–40 cycles of 10 seconds (from 0 to +2200 mV) to create nanocavities. Electrochemical deposition of platinum in nanocavities was achieved by cycling from 0 to −800 mV with a scan rate of 200 mV s^−1 for 8 to 10 cycles in 2 mM H2PtCl6 solution in 0.1 M hydrochloric acid. […]
The setup for amperometric measurements included a PC that was connected to a system consisting of an ADC–DAC converter Axon Digidata 1550B (Axon Instruments, Burlingame, CA, USA) and patch-clamp amplifier MultiClamp 700B (Axon Instruments, USA). […] The potential difference between the Pt-nanoelectrode and the reference electrode was recorded with the pClamp 11 software suite (Molecular Devices, Silicon Valley, CA, USA) and processed with Origin 2018 software.
PC-3 (2.0 × 10^5)/22Rv1 (3.5 × 10^5) cells were seeded in 35 mm Petri dishes, incubated under the conditions described above, and then treated for 24 h. […] Untreated cells were used as a control, which was evaluated at the beginning and at the end of the experiment. […]

Acute toxicity in mice = format: in vivo
Procedure: White, outbred male mice (ICR) about 2 months old weighing 19–21 g were used. Conjugate PSMA-Abi (2000 mg/kg) was formulated with 1% starch gel solution. The mixture was administrated intragastrically in an amount not exceeding 0.5 mL, and in portions if necessary. The control group was administered 1% starch gel solution. Animals were kept under controlled environmental conditions: air temperature 20–26 °C and relative humidity 30–70%. Lighting in the rooms was artificial (a cycle of 12 h of light, 12 h of darkness). Before the start of the study, animals were divided into groups of 10 animals per group. The distribution was made such that the average masses of groups of animals of one species differed by no more than 10%. Before the experiment concerning the determination of acute toxicity, the animals were deprived of food and water (mice for 2 h) and then weighed. The duration of observation of laboratory animals was 14 days. During this period, visible signs of intoxication were evaluated. Dose selection was carried out based on 22Rv1 xenograft experiments with the maximum effective dose for mice of 500 mg/kg.

cytochrome P450 2C19 = biological target: T1, cytochrome P450 2C19 (Homo sapiens, UniProt P33261); experiment: Cytochrome inhibition in human liver microsomes, 2C19; format: in vitro ADME; conditions: substrate Mephenytoin, read-out: IC50, 2C19 (PSMA-Abi)
T1 construct: isoenzyme activity in human liver microsomes using conventional sample substrates and HPLC-MS/MS detection; from tissue; host or cells: human liver microsomes
Text: (§1) To assess the effect of drugs on liver cytochrome activity in drug development, test systems with recombinant enzymes and fluorescent substrates as well as microsomes with metabolic substrates and HPLC-MS/MS analysis were used. The present study aimed to investigate the effect of targeted delivery drugs specific to malignant prostate cells on cytochrome P450 (CYP450) isoenzyme activity in human liver microsomes using conventional sample substrates and HPLC-MS/MS detection. Detailed methodological parameters are described in the Supplementary Material.

cytochrome P450 2C9 = biological target: T2, cytochrome P450 2C9 (Homo sapiens, UniProt P11712); experiment: Cytochrome inhibition in human liver microsomes, 2C9; format: in vitro ADME; conditions: substrate Tolbutamide, read-out: IC50, 2C9 (PSMA-Abi)
T2 construct: isoenzyme activity in human liver microsomes using conventional sample substrates and HPLC-MS/MS detection; from tissue; host or cells: human liver microsomes
Text: as §1

cytochrome P450 2D6 = biological target: T3, cytochrome P450 2D6 (Homo sapiens, UniProt P10635); experiment: Cytochrome inhibition in human liver microsomes, 2D6; format: in vitro ADME; conditions: substrate Dextromethorphan, read-out: IC50, 2D6 (PSMA-Abi)
T3 construct: isoenzyme activity in human liver microsomes using conventional sample substrates and HPLC-MS/MS detection; from tissue; host or cells: human liver microsomes
Text: as §1

22Rv1 cells = experiment: Cell cycle analysis; format: cell-based, human
Procedure: Cell cycle was analyzed in 22Rv1 cells fixed in 70% ethanol with Muse® cell cycle kit. The fixation lasted overnight at −20 °C. Then, cells were collected by centrifugation at 4000 rpm for 10 min and washed with PBS. The cells were resuspended with Muse® Cell Cycle reagent and incubated for 30 min at room temperature in the dark; then, they were counted.

[2] = system: human adult dermal fibroblasts (HDFa); experiment: Cytotoxicity on human adult dermal fibroblasts, MTT-test; format: cell-based
Procedure: Human adult dermal fibroblasts (HDFa). (ATCC) were propagated in DMEM medium (Paneco) supplemented with 10% fetal calf serum (Gibco) and 1% pemicillin/streptomycin in a 5% CO2 atmosphere at 37 °C. Cytotoxicity of PSMA-Abi and AbiAc in fibroblasts were studied using MTT-test. The cells in the exponential growth phase were trypsinized, counted, and seeded at a density of 5000 cells/well in 96-well plate. Cells were incubated with both tested agents at the designated concentrations (0.4–100 μM) for 72 h; then, each well was treated with 20 μL MTT solution in PBS (5 mg/mL) and cells were incubated at least for 3 h, and formazan was dissolved in DMSO. The absorbance was measured at […] and 620 nm using Thermofischer Scientific Multiscan FC. The values for each point were calculated from 6 wells.

[3] = mice males, 2000 mg/kg single, M±SD

T2 sequence (P11712 whole entry): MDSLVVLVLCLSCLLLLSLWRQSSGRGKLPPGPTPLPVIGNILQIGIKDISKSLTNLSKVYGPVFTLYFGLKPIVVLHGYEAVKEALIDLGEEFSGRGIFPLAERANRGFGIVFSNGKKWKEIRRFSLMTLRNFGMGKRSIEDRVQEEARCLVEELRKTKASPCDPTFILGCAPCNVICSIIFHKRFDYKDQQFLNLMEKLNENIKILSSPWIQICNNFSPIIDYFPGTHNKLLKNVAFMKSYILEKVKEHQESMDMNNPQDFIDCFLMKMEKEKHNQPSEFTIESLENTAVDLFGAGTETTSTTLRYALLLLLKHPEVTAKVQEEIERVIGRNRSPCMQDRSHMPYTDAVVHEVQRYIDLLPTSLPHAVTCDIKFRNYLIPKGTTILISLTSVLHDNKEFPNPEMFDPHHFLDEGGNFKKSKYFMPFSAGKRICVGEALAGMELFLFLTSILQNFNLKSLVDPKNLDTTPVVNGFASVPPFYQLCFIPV
T1 sequence (P33261 whole entry): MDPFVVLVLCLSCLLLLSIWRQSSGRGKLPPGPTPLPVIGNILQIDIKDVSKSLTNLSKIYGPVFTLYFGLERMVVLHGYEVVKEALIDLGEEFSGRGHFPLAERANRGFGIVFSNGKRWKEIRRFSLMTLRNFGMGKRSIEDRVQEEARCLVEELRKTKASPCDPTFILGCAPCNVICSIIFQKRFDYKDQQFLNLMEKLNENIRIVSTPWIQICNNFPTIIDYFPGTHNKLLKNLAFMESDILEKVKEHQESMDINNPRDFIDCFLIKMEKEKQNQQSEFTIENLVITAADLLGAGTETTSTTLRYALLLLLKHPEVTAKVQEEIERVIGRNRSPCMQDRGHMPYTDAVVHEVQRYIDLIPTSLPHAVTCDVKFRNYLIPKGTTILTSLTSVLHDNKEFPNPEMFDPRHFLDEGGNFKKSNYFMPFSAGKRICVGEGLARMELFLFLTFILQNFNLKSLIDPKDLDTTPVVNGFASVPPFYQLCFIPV
T3 sequence (P10635 whole entry): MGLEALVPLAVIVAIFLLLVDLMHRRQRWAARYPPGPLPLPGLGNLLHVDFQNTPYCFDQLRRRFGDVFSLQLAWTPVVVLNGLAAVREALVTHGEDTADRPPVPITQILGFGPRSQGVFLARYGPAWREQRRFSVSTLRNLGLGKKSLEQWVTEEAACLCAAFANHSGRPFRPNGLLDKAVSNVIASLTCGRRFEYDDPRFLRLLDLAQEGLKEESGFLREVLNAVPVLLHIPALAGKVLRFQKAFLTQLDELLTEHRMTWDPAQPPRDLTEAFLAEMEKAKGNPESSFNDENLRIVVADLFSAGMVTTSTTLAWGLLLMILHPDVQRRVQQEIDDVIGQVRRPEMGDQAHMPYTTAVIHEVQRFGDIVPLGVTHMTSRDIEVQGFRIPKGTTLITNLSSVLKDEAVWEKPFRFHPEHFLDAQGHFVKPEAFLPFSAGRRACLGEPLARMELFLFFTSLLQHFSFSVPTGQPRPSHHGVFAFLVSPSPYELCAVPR

## C[C@]12CC[C@H](OC(=O)CCCc3cn(CCCNC(=O)[C@H](Cc4ccc(O)cc4)NC(=O)[C@H](Cc4ccccc4)NC(=O)CCC(=O)NCCCCCC(=O)N(CCCC[C@H](NC(=O)N[C@@H](CCC(=O)O)C(=O)O)C(=O)O)Cc4cccc(Cl)c4)nn3)CC1=CC[C@@H]1[C@@H]2CC[C@]2(C)C(c3cccnc3)=CC[C@@H]12 [PSMA-Abi]
[1]
  water solubility: better water solubility compared to the AbiAc
22Rv1
  ROS (hydrogen peroxide) level in single cells: significant increase in comparison with both the control and AbiAc groups
Acute toxicity in mice; [3]
  weight dynamic, % of starting weight, 5 days: 17.5±7.4%
  weight dynamic, % of starting weight, 10 days: 30.9±11.5%
  weight dynamic, % of starting weight, 14 days: 30.7±17.9%
Acute toxicity in mice; mice, 2000 mg/kg single dose, by the 14th day, control 50
  growth rate (body weight), % of initial weight: 30%
Acute toxicity in mice; mice, 2000 mg/kg single dose, intragastric, 14 days observation, 2000 mg/kg
  animal death: No animal death was observed; also recorded: without animal death
Acute toxicity in mice; mice, single dose
  tolerable dose: 2000 mg/kg
Cytochrome P450 2C19
  IC50: > 25 µM
Cytochrome P450 2C9
  IC50: > 25 µM
Cytochrome P450 2D6
  IC50: 17 ± 1 µM
22Rv1 cells; 22Rv1, against a control group
  effect on cell cycle: not statistically significant against a control group
22Rv1 cells; 22Rv1, with increasing concentration
  level of G0/G1 cells: practically unchanged
[2]; HDFa, 72 h, MTT
  CC50: > 100 µM
[2]; tested concentrations 0.4–100 µM
  toxicity for human fibroblasts: inactive
